# Assay results as given in patent publication US12642798B2, “Aripiprazole prodrug composition” (ALKERMES PHARMA IRELAND LIMITED, priority 2014, dated 2026).
# Experiment: Particle size analysis by laser light scattering (Horiba)
# Type: physicochemical
# Details: solid particulate form prior to milling
# Description: The term “particle size” or “volume based particle size” or “volume based particle size distribution” as used herein is equivalent to and also referred to as the Dv50 or D50 and means that at least about 50% of the aripiprazole prodrug particles have a diameter of less than the size specified. The aforementioned terms are used interchangeably herein. For example a volume based particle size (Dv50) of less than 1000 nm, means that 50% of the particle population has a diameter of less than 1000 nm when measured by static or dynamic light scattering techniques known to those skilled in the art. […] Unless otherwise specified, all particle sizes are specified in terms of volume based measurements and are measured by laser light scattering/diffraction. Particle sizes are then determined based on Mie scattering theory. More specifically, unless otherwise specified, volume based particle size (Dv50) is determined using a Horiba LA-950 standard model laser particle size analyser. Deionized water or water with a small quantity (for example 0.1% w/w) of surface stabilizer (for example polysorbate 20) is used as the sizing medium unless otherwise specified. […]
# The particle size of the present composition may be measured using techniques such as light scattering with either water or a dilute surface stabilizer solution as the diluent. […]
row,SMILES,particle size (Dv50) prior to milling
1,"CCCCCC(=O)OCN1C(=O)CCc2ccc(OCCCCN3CCN(c4cccc(Cl)c4Cl)CC3)cc21 [aripiprazole cavoxil, (7-(4-(4-(2,3-Dichlorophenyl)piperazin-1-yl)butoxy)-2-oxo-3,4-dihydroquinolin-1(2H)yl)methyl hexanoate]",greater than 8 microns
2,"CCCCCCCCCCCC(=O)OCN1C(=O)CCc2ccc(OCCCCN3CCN(c4cccc(Cl)c4Cl)CC3)cc21 [aripiprazole lauroxil, Dodecanoic acid, [7-[4-[4-(2,3-dichlorophenyl)-1-piperazinyl]butoxy]-3,4-dihydro-2-oxo-1(2H)-quinolinyl]methyl ester]",greater than 10 microns
